# Experimental data reported in patent publication US8592161B2, “Mutational profiles in HIV-1 protease correlated with phenotypic drug resistance” (Janssen R&D Ireland, priority 2002, dated 2013).
# pEC50: −log10 of the molar value. Like-named read-outs stand apart in the source and are kept apart here.
# How the values were obtained:
# Format in all cases: cell-based
# HIV-1/LAI = assay: In vitro antiviral activity in acutely infected MT4 cells, wild type; settings: read-out: median EC50
# Protocol: (§1) Determination of the antiviral activity of a compound was done as described in Pauwels R. et al. (J Virol Methods 1988; 20(4):309-21). Various concentrations of the test compounds were brought into each well of a flat-bottom microtiter plate. Subsequently, HIV and MT4 cells were added to a final concentration of 200-250 50% cell culture infectious doses (CCID50)/well and 30,000 cells/well, respectively. After 5 days of incubation (37° C., 5% CO2), the cytopathic effect of the replicating virus was determined by the tetrazolium colorimetric MTT method. The dose protecting 50% of the cells from virus cytopathic effect was defined as the EC50, while the dose achieving 90% protection was defined as the EC90.
# (§2) MT4-LTR-EGFP cells were infected at a multiplicity of infection (MOI) of 0.01 to 0.001 CCID50/cell in the presence of inhibitor. The starting concentration of the inhibitor was two to tee times the EC50, a suboptimal concentration. The cultures were sub-cultivated and scored microscopically on virus-induced fluorescence and cytopathicity every 3-4 days. The cultures were sub-cultivated in the presence of the same compound concentration until signs of virus replication were observed. The escaping virus was further cultivated in the presence of the same inhibitor concentration in order to enrich the population in resistant variants. If full virus breakthrough was observed the supernatant was collected and stored (new virus strain). Afterwards, the same virus was challenged with a higher compound concentration in order to select variants able to grow in the presence of as high as possible inhibitor concentrations. From the new viruses, a virus stock was grown in the absence of inhibitor.
# (§3) In vitro drug selection experiments starting from wild-type HIV-1 under pressure of compound 1, compound 2, and Nelfinavir (NFV) have been performed. Tables 1, 2, 3, 4, and 5 show the genotypic and phenotypic characterization of the selected strains.
# [1] = tested on: HIV-1 strain selected with Comp 1 (20 nM, 94 days), protease R41G/R V82V/I; assay: In vitro antiviral activity in acutely infected MT4 cells, selected strain; settings: for pEC50: Human immunodeficiency virus 1, Table 4, strain R41G/R V82V/I (Comp 1 20 nM, 94 days), read-out: median EC50
# Protocol: as §1, §2, §3
# [2] = tested on: HIV-1 strain selected with Comp 1 (40 nM, 161 days), protease R41G V82I; assay: as above; settings: for pEC50: Human immunodeficiency virus 1, Table 4, strain R41G V82I (Comp 1 40 nM, 161 days), read-out: median EC50
# Protocol: as §1, §2, §3
# [3] = tested on: HIV-1 strain selected with Comp 1 (40 nM, 175 days), protease R41G V82I; assay: as above; settings: for pEC50: Human immunodeficiency virus 1, Table 4, strain R41G V82I (Comp 1 40 nM, 175 days), read-out: median EC50
# Protocol: as §1, §2, §3
# [4] = tested on: HIV-1/LAI strain selected with Comp 1 (100 nM, 139 days), protease S37S/N R41R/K K70E; assay: as above; settings: for pEC50: Human immunodeficiency virus 1, Table 2, strain S37S/N R41R/K K70E (Comp 1 100 nM, 139 days), read-out: median EC50
# Protocol: as §1, §2, §3
# [5] = tested on: HIV-1/LAI strain selected with Comp 1 (100 nM, 195 days), protease S37N R41S K70E; assay: as above; settings: for pEC50: Human immunodeficiency virus 1, Table 2, strain S37N R41S K70E (Comp 1 100 nM, 195 days), read-out: median EC50
# Protocol: as §1, §2, §3
# [6] = tested on: HIV-1/LAI strain selected with Comp 1 (200 nM, 328 days), protease S37N R41S K70E; assay: as above; settings: for pEC50: Human immunodeficiency virus 1, Table 2, strain S37N R41S K70E (Comp 1 200 nM, 328 days), read-out: median EC50
# Protocol: as §1, §2, §3
# [7] = tested on: HIV-1/LAI strain selected with Comp 1 (30 nM, 70 days), protease K70E; assay: as above; settings: for pEC50: Human immunodeficiency virus 1, Table 2, strain K70E (Comp 1 30 nM, 70 days), read-out: median EC50
# Protocol: as §1, §2, §3
# [8] = tested on: HIV-1/LAI strain selected with Compound 1 (100 nM, 188 days), protease R41T K70E; assay: as above; settings: for pEC50: Human immunodeficiency virus 1, Table 1, strain R41T K70E (Compound 1 100 nM, 188 days), read-out: median EC50
# Protocol: as §1, §2, §3
# [9] = tested on: HIV-1/LAI strain selected with Compound 1 (30 nM, 45 days), protease R41T; assay: as above; settings: for pEC50: Human immunodeficiency virus 1, Table 1, strain R41T (Compound 1 30 nM, 45 days), read-out: median EC50
# Protocol: as §1, §2, §3
# [10] = tested on: HIV-1/LAI strain selected with Compound 1 (100 nM, 97 days), protease R41T K70E; assay: as above; settings: for pEC50: Human immunodeficiency virus 1, Table 1, strain R41T K70E (Compound 1 100 nM, 97 days), read-out: median EC50
# Protocol: as §1
# as §2, with “The cultures were sub-cultivated in the presence of the same compound concentration until signs of virus replication were observed.” left out, “Afterwards, the same virus was challenged with a higher compound concentration in order to select variants able to grow in the presence of as high as possible inhibitor concentrations.” left out
# [11] = tested on: HIV-1 starting strain of Table 4 (no compound, no mutations); assay: In vitro antiviral activity in acutely infected MT4 cells, starting strain; settings: for pEC50: Human immunodeficiency virus 1, starting strain HIV-1, no compound, read-out: median EC50
# Protocol: as §1, §2, §3
# [12] = tested on: HIV-1/LAI strain selected with Compound 2 (100 nM), protease R41I; Table 3; assay: In vitro antiviral activity in acutely infected MT4 cells, selected strain; settings: Human immunodeficiency virus 1, R41I strain selected with Compound 2 100 nM (head lists 116, 200, 264 days; assignment unclear), read-out: median EC50
# Protocol: as §1, §2, §3
# [13] = tested on: HIV-1/LAI strain selected with Compound 2 (100 nM), protease R41I; assay: as above; settings: Human immunodeficiency virus 1, Table 3, R41I strain selected with Compound 2 100 nM (head lists 116, 200, 264 days; assignment unclear), read-out: median EC50
# Protocol: as §1
# as §2, with “The cultures were sub-cultivated in the presence of the same compound concentration until signs of virus replication were observed.” left out, “Afterwards, the same virus was challenged with a higher compound concentration in order to select variants able to grow in the presence of as high as possible inhibitor concentrations.” left out
# [14] = tested on: HIV-1/LAI strain selected with NFV (1000 nM, 35 days), protease D30N M46I; assay: as above; settings: Human immunodeficiency virus 1, Table 5, strain D30N M46I (NFV 1000 nM, 35 days), read-out: median EC50
# Protocol: as §1, §2, §3
# [15] = tested on: HIV-1/LAI strain selected with NFV (3000 nM, 69 days), protease L10F D30N M46I V77I I85V/I N88D/N; assay: as above; settings: Human immunodeficiency virus 1, Table 5, strain L10F D30N M46I V77I I85V/I N88D/N (NFV 3000 nM, 69 days), read-out: median EC50
# Protocol: as §1, §2, §3
# [16] = tested on: HIV-1/LAI strain selected with NFV (9000 nM, 11l days), protease L10F D30N R41R/K K45I/K M46I V77I I84V/I I85V/I N88D; assay: as above; settings: Human immunodeficiency virus 1, Table 5, strain L10F D30N R41R/K K45I/K M46I V77I I84V/I I85V/I N88D (NFV 9000 nM, 11l days), read-out: median EC50
# Protocol: as §1, §2, §3
# [17] = tested on: HIV-1/LAI strain selected with NFV (9000 nM, 140 days), protease L10F D30N R41R/K K45I/K M46I V77I I84V N88D; assay: as above; settings: Human immunodeficiency virus 1, Table 5, strain L10F D30N R41R/K K45I/K M46I V77I I84V N88D (NFV 9000 nM, 140 days), read-out: median EC50
# Protocol: as §1, §2, §3
# [18] = Human immunodeficiency virus 1, MT4, Table 1, wild-type HIV/LAI
# [19] = Human immunodeficiency virus 1, MT4, Table 2, wild-type HIV-1/LAI
# [20] = Human immunodeficiency virus 1, MT4, Table 4, wild-type HIV-1/LAI
# [21] = Human immunodeficiency virus 1, MT4, Table 3, wild-type HIV-1/LAI
# [22] = Human immunodeficiency virus 1, MT4, Table 5, wild-type HIV-1/LAI
Structure (SMILES),pEC50 (HIV-1/LAI; [18]),pEC50 (HIV-1/LAI; [19]),pEC50 (HIV-1/LAI; [20]),pEC50 [1],pEC50 [2],pEC50 [3],pEC50 [4],pEC50 [5],pEC50 [6],pEC50 [7],pEC50 [8],pEC50 [9],pEC50 [10],pEC50 [11],pEC50 (HIV-1/LAI; [21]),pEC50 [12],pEC50 [13],pEC50 (HIV-1/LAI; [22]),pEC50 [14],pEC50 [15],also measured
"CC(C)CN(C[C@@H](O)[C@H](Cc1ccccc1)NC(=O)O[C@H]1CO[C@H]2OCC[C@H]21)S(=O)(=O)c1ccc(N)cc1 [Compound 1, Carbamic acid, [(1S,2R)-3-[[(4-aminophenyl)sulfonyl](2-methylpropyl)amino]-2-hydroxy-1-(phenylmethyl)propyl]-, (3R,3aS,6aR)-hexahydrofuro[2,3-b]furan-3-yl ester]",8.49,8.59,8.59,8.96,8.59,8.72,8.60,8.33,9.40,8.19,7.36,8.11,7.59,8.47,,,,,,,"median FC (fold change in EC50 as compared to wild type) ([1]; Table 4, strain R41G/R V82V/I (Comp 1 20 nM, 94 days)): 0; median FC (fold change in EC50 as compared to wild type) ([2]; Table 4, strain R41G V82I (Comp 1 40 nM, 161 days)): 1; median FC (fold change in EC50 as compared to wild type) ([3]; Table 4, strain R41G V82I (Comp 1 40 nM, 175 days)): 1; median FC (fold change in EC50 as compared to wild type) ([4]; Table 2, strain S37S/N R41R/K K70E (Comp 1 100 nM, 139 days)): 1; median FC (fold change in EC50 as compared to wild type) ([5]; Table 2, strain S37N R41S K70E (Comp 1 100 nM, 195 days)): 2; median FC (fold change in EC50 as compared to wild type) ([6]; Table 2, strain S37N R41S K70E (Comp 1 200 nM, 328 days)): 0.2; median FC (fold change in EC50 as compared to wild type) ([7]; Table 2, strain K70E (Comp 1 30 nM, 70 days)): 3; median FC (fold change in EC50 as compared to wild type) ([8]; Table 1, strain R41T K70E (Compound 1 100 nM, 188 days)): 10; median FC (fold change in EC50 as compared to wild type) ([9]; Table 1, strain R41T (Compound 1 30 nM, 45 days)): 2; median FC (fold change in EC50 as compared to wild type) ([10]; Table 1, strain R41T K70E (Compound 1 100 nM, 97 days)): 8; median FC (fold change in EC50 as compared to wild type) ([11]; starting strain HIV-1, no compound): 1"
CC(C)CN(C[C@@H](O)[C@H](Cc1ccccc1)NC(=O)O[C@H]1CO[C@H]2OCC[C@H]21)S(=O)(=O)c1ccc2nc(NCCN3CCCC3)sc2c1 [Compound 2],,,,,,,,,,,,,,,7.92,8.16,7.21,,,,
Cc1cccc(C)c1OCC(=O)N[C@@H](Cc1ccccc1)[C@@H](O)C[C@H](Cc1ccccc1)NC(=O)[C@H](C(C)C)N1CCCNC1=O [Lopinavir],8.10,8.34,8.34,8.70,8.74,9.00,8.55,8.41,8.96,7.77,7.33,7.57,,8.17,8.34,> 9.05,7.74,8.34,8.11,7.62,pEC50 [16]: 7.41; pEC50 [17]: 7.25
CC(C)c1nc(CN(C)C(=O)N[C@H](C(=O)N[C@@H](Cc2ccccc2)C[C@H](O)[C@H](Cc2ccccc2)NC(=O)OCc2cncs2)C(C)C)cs1 [Ritonavir],7.51,7.48,7.48,8.38,8.20,8.77,7.66,7.85,7.51,7.33,7.34,7.49,7.68,7.66,7.48,7.66,,7.48,7.72,7.57,pEC50 [16]: 7.07; pEC50 [17]: 6.77
